Measurements taken from US6689749B1, “Neuropeptides originating in scorpion” (Suntory Limited, priority 1996, dated 2004).

Target: T1, rat brain voltage-gated K+ channel, Kv1.3 (Rattus norvegicus, UniProt P15384)
T1 construct: expressed in transfected cells; host or cells: Xenopus oocytes (cRNA injection; pAS18 vector, SP6 transcription; clone from Prof; O. Pongs)
Assay: Assay of K+ channel inhibition: two-electrode voltage clamp of Kv1.3 expressed in Xenopus oocytes
Format: cell-based
Conditions: IC50 comparison with C-terminally amidated HsTX1
Protocol: Assay on inhibitory activity of the peptides on K^+ channels was performed in the following manner. The gene of the rat brain voltage-gated K^+ channel, Kv1.3 (Stuhmer et al., EMBO J., 8, vol. 11, pp. 3235-3244, 1988), which was graciously contributed by Prof. O. Pongs (Institute für Neurale Signalverarbeitung, Hamburg, Germany) was inserted into pAS18 vector according to a conventional technique. This vector was treated with EcoRI and then the resultant clone was transcribed in vitro with SP6 RNA polymerase using a transcription kit (Stratagene Inc., USA). The cRNA obtained was injected into Xenopus oocytes 16-72 hr prior to electrophysiological experiments.
The oocytes which had been expressed the Kv1.3 gene were added to a 100 μl-chamber filled with an ND96 solution (0.3 mM CaCl2, 1 mM MgCl2, 2 mM KCl and 96 mM NaCl in 5 mM Hepes buffer, pH 7.6) supplemented with 50 mg/ml of bovine serum albumin (BSA), and the ND96 solution was continuously perfused through reservoirs at a flow rate of 4 ml/min. The sample to be tested was separately dissolved to an ND96 solution and then added to the chamber by perfusion through a reservoir. The switching from one reservoir to another for each experiment was performed by means of Teflon valves. All measurements were made at room temperature (about 22° C.). […]

T1 sequence (P15384 whole entry): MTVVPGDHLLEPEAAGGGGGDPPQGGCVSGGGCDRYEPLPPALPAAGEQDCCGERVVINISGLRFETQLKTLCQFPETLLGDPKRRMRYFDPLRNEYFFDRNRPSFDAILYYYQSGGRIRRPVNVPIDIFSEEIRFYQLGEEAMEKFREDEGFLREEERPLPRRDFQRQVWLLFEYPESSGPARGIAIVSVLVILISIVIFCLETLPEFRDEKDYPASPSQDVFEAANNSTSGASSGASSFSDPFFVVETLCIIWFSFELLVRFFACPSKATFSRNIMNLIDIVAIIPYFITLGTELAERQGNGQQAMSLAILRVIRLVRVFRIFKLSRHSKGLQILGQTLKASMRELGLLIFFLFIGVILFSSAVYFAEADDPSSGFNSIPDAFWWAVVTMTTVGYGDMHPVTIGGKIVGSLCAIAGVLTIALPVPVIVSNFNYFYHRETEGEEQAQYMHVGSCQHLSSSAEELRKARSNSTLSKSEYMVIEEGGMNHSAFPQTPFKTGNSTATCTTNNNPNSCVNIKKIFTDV

Compound: CSCC[C@@H]1NC(=O)[C@@H]2CSSC[C@H](NC(=O)[C@H](CO)NC(=O)[C@H](C)N)C(=O)N[C@@H](CCCNC(=N)N)C(=O)N[C@@H]([C@@H](C)O)C(=O)N3CCC[C@H]3C(=O)N[C@@H](CCCCN)C(=O)N[C@@H](CC(=O)O)C(=O)N[C@H]3CSSC[C@H](NC(=O)[C@H](CCCCN)NC(=O)[C@H](CCCNC(=N)N)NC(=O)[C@H](CC(N)=O)NC1=O)C(=O)N[C@@H](CCCCN)C(=O)N[C@H]1CSSC[C@H](NC(=O)[C@@H]4CCCN4C(=O)[C@H](CC(=O)O)NC(=O)[C@H](C)NC3=O)C(=O)N[C@@H](CCCNC(=N)N)C(=O)N[C@@H](CCCCN)C(=O)N[C@@H](CCC(=O)O)C(=O)N[C@@H]([C@@H](C)O)C(=O)NCC(=O)N[C@@H](CSSC[C@@H](C(=O)O)NC(=O)[C@H](CCCNC(=N)N)NC(=O)[C@H](CC(N)=O)NC1=O)C(=O)N1CCC[C@H]1C(=O)N[C@@H](Cc1ccc(O)cc1)C(=O)NCC(=O)N[C@@H](CCCCN)C(=O)N2 [HsTX1-COOH]
- activity relative to HsTX1 on Kv1.3: about one-fifth
